From ChEMBL document CHEMBL3758081, “Synthesis and biological evaluation of new naphthalene substituted thiosemicarbazone derivatives as potent antifungal and anticancer agents” (Eur J Med Chem, 2016)
Converted amounts (≈) assume the structure as drawn.

Key:
[1] = system: [Candida] zeylanoides; experiment: Antifungal activity against Candida zeylanoides NRLL Y-1774 after 48 hrs by broth microdilution method; type: functional; settings: Dujonia zeylanoides, NRLL Y-1774, 48 h
[2] = system: Nakaseomyces glabratus; experiment: Antifungal activity against clinical isolate Candida glabrata after 48 hrs by broth microdilution method; type: functional
[3] = system: Salmonella typhimurium; experiment: Mutagenicity in Salmonella typhimurium TA100 at 0.625 mg/ml after 48 hrs by Ames MPF assay in presence of Sprague-Dawley rat liver S9 fraction; type: toxicity, organism-based; settings: salmonella enterica subsp. enterica serovar typhimurium, s9, 48 h
[4] = system: Salmonella typhimurium; experiment: Genotoxicity in Salmonella typhimurium TA1535/pSK1002 assessed as growth factor at 0.156 mg/ml after 2 hrs by umuC assay in absence of Sprague-Dawley rat liver S9 fraction; type: toxicity, organism-based; settings: salmonella enterica subsp. enterica serovar typhimurium
[5] = system: Salmonella typhimurium; experiment: Mutagenicity in Salmonella typhimurium TA98 at 0.3125 mg/ml after 48 hrs by Ames MPF assay in absence of Sprague-Dawley rat liver S9 fraction; type: toxicity, organism-based; settings: salmonella enterica subsp. enterica serovar typhimurium
[6] = Genotoxicity in Salmonella typhimurium TA1535/pSK1002 assessed as induction ratio at 5 mg/ml after 2 hrs by umuC assay in presence of Sprague-Dawley rat liver S9 fraction; type: toxicity, organism-based; settings: salmonella enterica subsp. enterica serovar typhimurium
[7] = system: A549; experiment: Cytotoxicity against human A549 cells after 24 hrs by XTT assay; type: functional, cell-based; settings: A549, 24 h
[8] = system: Salmonella typhimurium; experiment: Mutagenicity in Salmonella typhimurium TA100 at 2.5 mg/ml after 48 hrs by Ames MPF assay in presence of Sprague-Dawley rat liver S9 fraction; type: toxicity, organism-based; settings: salmonella enterica subsp. enterica serovar typhimurium, s9, 48 h
[9] = system: Salmonella typhimurium; experiment: Mutagenicity in Salmonella typhimurium TA98 at 0.156 mg/ml after 48 hrs by Ames MPF assay in presence of Sprague-Dawley rat liver S9 fraction; type: toxicity, organism-based; settings: salmonella enterica subsp. enterica serovar typhimurium, s9, 48 h
[10] = system: Salmonella typhimurium; experiment: Genotoxicity in Salmonella typhimurium TA1535/pSK1002 assessed as growth factor at 0.3125 mg/ml after 2 hrs by umuC assay in absence of Sprague-Dawley rat liver S9 fraction; type: toxicity, organism-based; settings: salmonella enterica subsp. enterica serovar typhimurium
[11] = system: Aspergillus parasiticus; experiment: Antifungal activity against Aspergillus parasiticus NRRL 465 after 72 hrs by broth microdilution method; type: functional; settings: NRRL 465, 72 h
[12] = system: Candida parapsilosis; experiment: Antifungal activity against Candida parapsilosis NRLL Y-12696 after 48 hrs by broth microdilution method; type: functional; settings: Lodderomyces parapsilosis, NRLL Y-12696, 48 h
[13] = system: Salmonella typhimurium; experiment: Mutagenicity in Salmonella typhimurium TA98 at 0.625 mg/ml after 48 hrs by Ames MPF assay in presence of Sprague-Dawley rat liver S9 fraction; type: toxicity, organism-based; settings: salmonella enterica subsp. enterica serovar typhimurium, s9, 48 h
[14] = system: Aspergillus flavus; experiment: Antifungal activity against Aspergillus flavus NRRL-980 after 72 hrs by broth microdilution method; type: functional; settings: NRRL-980, 72 h
[15] = system: Salmonella typhimurium; experiment: Mutagenicity in Salmonella typhimurium TA100 at 0.625 mg/ml after 48 hrs by Ames MPF assay in absence of Sprague-Dawley rat liver S9 fraction; type: toxicity, organism-based; settings: salmonella enterica subsp. enterica serovar typhimurium
[16] = Genotoxicity in Salmonella typhimurium TA1535/pSK1002 assessed as induction ratio at 5 mg/ml after 2 hrs by umuC assay in absence of Sprague-Dawley rat liver S9 fraction; type: toxicity, organism-based; settings: salmonella enterica subsp. enterica serovar typhimurium
[17] = system: Aspergillus niger; experiment: Antifungal activity against Aspergillus niger ATCC-1094 after 72 hrs by broth microdilution method; type: functional; settings: ATCC-1094, 72 h
[18] = system: Salmonella typhimurium; experiment: Mutagenicity in Salmonella typhimurium TA100 at 1.25 mg/ml after 48 hrs by Ames MPF assay in presence of Sprague-Dawley rat liver S9 fraction; type: toxicity, organism-based; settings: salmonella enterica subsp. enterica serovar typhimurium, s9, 48 h
[19] = system: Salmonella typhimurium; experiment: Mutagenicity in Salmonella typhimurium TA98 at 0.3125 mg/ml after 48 hrs by Ames MPF assay in presence of Sprague-Dawley rat liver S9 fraction; type: toxicity, organism-based; settings: salmonella enterica subsp. enterica serovar typhimurium, s9, 48 h
[20] = system: Salmonella typhimurium; experiment: Mutagenicity in Salmonella typhimurium TA100 at 0.156 mg/ml after 48 hrs by Ames MPF assay in presence of Sprague-Dawley rat liver S9 fraction; type: toxicity, organism-based; settings: salmonella enterica subsp. enterica serovar typhimurium, s9, 48 h
[21] = Genotoxicity in Salmonella typhimurium TA1535/pSK1002 assessed as induction ratio at 0.156 mg/ml after 2 hrs by umuC assay in absence of Sprague-Dawley rat liver S9 fraction; type: toxicity, organism-based; settings: salmonella enterica subsp. enterica serovar typhimurium
[22] = system: Salmonella typhimurium; experiment: Mutagenicity in Salmonella typhimurium TA100 at 0.156 mg/ml after 48 hrs by Ames MPF assay in absence of Sprague-Dawley rat liver S9 fraction; type: toxicity, organism-based; settings: salmonella enterica subsp. enterica serovar typhimurium
[23] = system: Pichia kudriavzevii; experiment: Antifungal activity against Candida krusei NRLL Y-7179 after 48 hrs by broth microdilution method; type: functional; settings: NRLL Y-7179, 48 h
[24] = system: Salmonella typhimurium; experiment: Genotoxicity in Salmonella typhimurium TA1535/pSK1002 assessed as growth factor at 5 mg/ml after 2 hrs by umuC assay in absence of Sprague-Dawley rat liver S9 fraction; type: toxicity, organism-based; settings: salmonella enterica subsp. enterica serovar typhimurium
[25] = system: Salmonella typhimurium; experiment: Genotoxicity in Salmonella typhimurium TA1535/pSK1002 assessed as growth factor at 1.25 mg/ml after 2 hrs by umuC assay in presence of Sprague-Dawley rat liver S9 fraction; type: toxicity, organism-based; settings: salmonella enterica subsp. enterica serovar typhimurium, s9, 2 h
[26] = Genotoxicity in Salmonella typhimurium TA1535/pSK1002 assessed as induction ratio at 2.5 mg/ml after 2 hrs by umuC assay in presence of Sprague-Dawley rat liver S9 fraction; type: toxicity, organism-based; settings: salmonella enterica subsp. enterica serovar typhimurium
[27] = system: Fusarium solani; experiment: Antifungal activity against Fusarium solani NRRL-13414 after 72 hrs by broth microdilution method; type: functional; settings: NRRL-13414, 72 h
[28] = system: Salmonella typhimurium; experiment: Mutagenicity in Salmonella typhimurium TA100 at 5 mg/ml after 48 hrs by Ames MPF assay in absence of Sprague-Dawley rat liver S9 fraction; type: toxicity, organism-based; settings: salmonella enterica subsp. enterica serovar typhimurium
[29] = system: Salmonella typhimurium; experiment: Genotoxicity in Salmonella typhimurium TA1535/pSK1002 assessed as growth factor at 0.625 mg/ml after 2 hrs by umuC assay in presence of Sprague-Dawley rat liver S9 fraction; type: toxicity, organism-based; settings: salmonella enterica subsp. enterica serovar typhimurium, s9, 2 h
[30] = system: Salmonella typhimurium; experiment: Mutagenicity in Salmonella typhimurium TA98 at 1.25 mg/ml after 48 hrs by Ames MPF assay in absence of Sprague-Dawley rat liver S9 fraction; type: toxicity, organism-based; settings: salmonella enterica subsp. enterica serovar typhimurium
[31] = system: Salmonella typhimurium; experiment: Genotoxicity in Salmonella typhimurium TA1535/pSK1002 assessed as growth factor at 5 mg/ml after 2 hrs by umuC assay in presence of Sprague-Dawley rat liver S9 fraction; type: toxicity, organism-based; settings: salmonella enterica subsp. enterica serovar typhimurium, s9, 2 h
[32] = system: Salmonella typhimurium; experiment: Genotoxicity in Salmonella typhimurium TA1535/pSK1002 assessed as growth factor at 1.25 mg/ml after 2 hrs by umuC assay in absence of Sprague-Dawley rat liver S9 fraction; type: toxicity, organism-based; settings: salmonella enterica subsp. enterica serovar typhimurium
[33] = system: Salmonella typhimurium; experiment: Mutagenicity in Salmonella typhimurium TA98 at 2.5 mg/ml after 48 hrs by Ames MPF assay in presence of Sprague-Dawley rat liver S9 fraction; type: toxicity, organism-based; settings: salmonella enterica subsp. enterica serovar typhimurium, s9, 48 h
[34] = Genotoxicity in Salmonella typhimurium TA1535/pSK1002 assessed as induction ratio at 1.25 mg/ml after 2 hrs by umuC assay in presence of Sprague-Dawley rat liver S9 fraction; type: toxicity, organism-based; settings: salmonella enterica subsp. enterica serovar typhimurium
[35] = Genotoxicity in Salmonella typhimurium TA1535/pSK1002 assessed as induction ratio at 2.5 mg/ml after 2 hrs by umuC assay in absence of Sprague-Dawley rat liver S9 fraction; type: toxicity, organism-based; settings: salmonella enterica subsp. enterica serovar typhimurium
[36] = system: Salmonella typhimurium; experiment: Mutagenicity in Salmonella typhimurium TA98 at 5 mg/ml after 48 hrs by Ames MPF assay in absence of Sprague-Dawley rat liver S9 fraction; type: toxicity, organism-based; settings: salmonella enterica subsp. enterica serovar typhimurium
[37] = system: Salmonella typhimurium; experiment: Mutagenicity in Salmonella typhimurium TA100 at 0.3125 mg/ml after 48 hrs by Ames MPF assay in absence of Sprague-Dawley rat liver S9 fraction; type: toxicity, organism-based; settings: salmonella enterica subsp. enterica serovar typhimurium

MIC [1] [µg/mL] | MIC [2] [µg/mL] | MIC [11] [µg/mL] | MIC [12] [µg/mL] | MIC [14] [µg/mL] | MIC [17] [µg/mL] | Compound | fold change (FC) [3] | Activity [4] | fold change (FC) [5] | fold induction at 2 h, 5 mg/ml [6] | IC50 [7] [µg/mL] | fold change (FC) [8] | fold change (FC) [9] | Activity [10] | fold change (FC) [13] | fold change (FC) [15] | fold induction at 2 h, 5 mg/ml [16] | fold change (FC) [18] | fold change (FC) [19] | fold change (FC) [20] | other results
250 (≈ 732 µM) | 125 (≈ 366 µM) | 250 (≈ 732 µM) | 250 (≈ 732 µM) | 250 (≈ 732 µM) | 250 (≈ 732 µM) | Fc1cccc(/C=N/NC(=S)Nc2cccc3ccccc23)c1F | 0.92 | 0.14 | 0 | 1.46 | 500 (≈ 1460 µM) | 0.58 | 0.94 | 0.115 | 0.84 | 0.42 | 1.55 | 0.68 | 0.84 | 1.02 | fold induction at 2 h, 0.156 mg/ml [21]: 6; fold change (FC) [22]: 0.48; MIC [23]: 250 µg/mL (≈ 732 µM); Activity [24]: 0.146; Activity [25]: 0.228; fold induction at 2 h, 2.5 mg/ml [26]: 3.99; MIC [27]: 250 µg/mL (≈ 732 µM); fold change (FC) [28]: 0.42; Activity [29]: 0.236; fold change (FC) [30]: 0.34; Activity [31]: 0.24; Activity [32]: 0.131; fold change (FC) [33]: 0.47; fold induction at 2 h, 1.25 mg/ml [34]: 1.42; fold induction at 2 h, 2.5 mg/ml [35]: 5.25; fold change (FC) [36]: 0.34; fold change (FC) [37]: 0.36
250 (≈ 732 µM) | 125 (≈ 366 µM) | 250 (≈ 732 µM) | 250 (≈ 732 µM) | 250 (≈ 732 µM) | 250 (≈ 732 µM) | Fc1ccc(F)c(/C=N/NC(=S)Nc2cccc3ccccc23)c1 | 0.44 | 0.142 | 0 | 1.42 | 500 (≈ 1460 µM) | 0.48 | 0.65 | 0.168 | 0.28 | 0.18 | 1.63 | 0.44 | 1.12 | 0.48 | fold induction at 2 h, 0.156 mg/ml [21]: 1.79; fold change (FC) [22]: 0.6; MIC [23]: 250 µg/mL (≈ 732 µM); Activity [24]: 0.131; Activity [25]: 0.121; fold induction at 2 h, 2.5 mg/ml [26]: 1.39; MIC [27]: 250 µg/mL (≈ 732 µM); fold change (FC) [28]: 0.36; Activity [29]: 0.274; fold change (FC) [30]: 0.34; Activity [31]: 0.228; Activity [32]: 0.115; fold change (FC) [33]: 0.56; fold induction at 2 h, 1.25 mg/ml [34]: 2.81; fold induction at 2 h, 2.5 mg/ml [35]: 1.75; fold change (FC) [36]: 0.17; fold change (FC) [37]: 0
